Like-named read-outs stand apart in the source and are kept apart here.
Assays:
Assay type in all cases: cell-based
β1-adrenergic receptor = β1-adrenergic receptor (Homo sapiens (Human), UniProt P08588); test: cAMP Gs dynamic HTRF assay, β1 expressing CHO cells; conditions: B1-AR
Method in brief: (§1)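 Intracellular cAMP quantified by Eu-donor/d2-acceptor HTRF after 30 min compound exposure at 37° C in stimulation buffer with IBMX. Concentrations ran 10 μM top, 5-fold steps, 10 points. Cell lines: 1321N1 astrocytoma and CHO expressing β1 or β2; EC50 via four-parameter fit, relative efficacy against isoproterenol.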

β2 adrenergic receptor = β2 adrenergic receptor (Homo sapiens (Human), UniProt P07550); test: cAMP Gs dynamic HTRF assay, β2 expressing CHO cells; conditions: B2-AR
Chain of β2 adrenergic receptor (P07550 whole entry, species assumed): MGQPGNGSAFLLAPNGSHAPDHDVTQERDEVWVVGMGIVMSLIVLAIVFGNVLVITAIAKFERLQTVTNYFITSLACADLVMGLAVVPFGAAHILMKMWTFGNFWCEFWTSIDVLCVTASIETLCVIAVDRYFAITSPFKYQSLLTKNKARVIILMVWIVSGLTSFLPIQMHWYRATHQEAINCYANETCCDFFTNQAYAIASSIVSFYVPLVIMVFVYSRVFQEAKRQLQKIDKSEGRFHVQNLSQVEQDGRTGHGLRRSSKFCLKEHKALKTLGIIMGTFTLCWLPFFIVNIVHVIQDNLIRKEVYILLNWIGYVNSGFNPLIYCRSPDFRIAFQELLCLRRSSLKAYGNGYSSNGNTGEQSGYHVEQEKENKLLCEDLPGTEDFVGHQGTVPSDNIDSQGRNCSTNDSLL
Method in brief: as §1

[1] = target: β2 adrenergic receptors in human astrocytoma cells (1321N1) (Homo sapiens (Human), UniProt P07550); test: cAMP HTRF assay in human astrocytoma cells (1321N1)
Chain of β2 adrenergic receptors in human astrocytoma cells (1321N1) (P07550 whole entry): as the sequence (P07550 whole entry, species assumed) above
Experimental: cAMP homogeneous time-resolved fluorescence (HTRF). Compound efficacy was determined using the cAMP Gs dynamic HTRF assay (Cisbio, catalog #62AM4PEC) largely following the manufacturer's instructions, also detailed below.
Compound preparation. […] Standard serial dilution curves were 10-point, 5-fold dilutions starting from a highest concentration of 10 μM. […] Assay plates were centrifuged at 500×g for 10 seconds. Compounds and IBMX were prepared at 2× final dose to compensate for addition of cells.
Cell preparation. 1× stimulation buffer, washing PBS (Dulbecco's phosphate-buffered saline, −Mg −Ca; Caisson Labs, catalog #PBL01), assay PBS (Dulbecco's phosphate-buffered saline, +Mg, +Ca; Caisson Labs, catalog #PBL02) and Versene (0.02% EDTA disodium salt solution in PBS without calcium or magnesium; Caisson Labs, catalog #EDL01) were pre-warmed to 37° C. Cells expressing beta-adrenergic receptor were washed in washing PBS to remove growth medium and then released from the surface by incubating with Versene for 5-10 minutes at 37° C. Cells were harvested using assay PBS, counted manually by hemocytometer or by an automated cell counter, pelleted by centrifugation (200×g, 5 minutes) and resuspended in 37° C. 1× stimulation buffer to a final density of 1.5×10^6 cells/mL. 5 μL of the suspended cell solution (7500 cell total) were added to all wells of the 384 well assay plate, the assay plate was covered with an Axygen® plate seal (Corning PCR-SP) and incubated in a humidified 37° C. environment supplemented with 5% CO2 for 30 minutes.
HTRF reagent addition, reading and data analysis. After 30 minutes of cell stimulation with test compound, the assay plates were centrifuged at 500×g for 10 seconds, and incubation was stopped with the addition of 5 μL cAMP-D2 acceptor, diluted 1:21 in detection and lysis buffer 2 (Cisbio 62CL2FDF) was added to all cells. Subsequently, 5 μL Anti-cAMP-Eu Donor, diluted 1:21 in detection and lysis buffer 2, was added to cells. Plates were sealed and reactions gently ‘vortexed’ at 900 rpm on a Heidolph Titramax 1000 for at least 30 minutes at room temperature. Plates were centrifuged again at 500×g for 10 seconds, and HTRF was measured using a Tecan Spark plate reader at 50 flashes per well. […] Potency estimates (EC50) were derived from the four-parameter nonlinear regression of the concentration-effect curve and an estimate of relative efficacy was determined by comparing the magnitude of the test compound HTRF signal window (min−max dose) with the signal window of the full agonist control, isoproterenol.

B3-AR = B3-AR (Homo sapiens (Human), UniProt P13945); test: cAMP potency assay, B3-AR expressing CHO-K1 cells; conditions: read-out: Average pEC50 [Receptor subtype: B3-AR, Cell type: CHO-K1] (converted)
Chain of B3-AR (P13945 whole entry, species assumed): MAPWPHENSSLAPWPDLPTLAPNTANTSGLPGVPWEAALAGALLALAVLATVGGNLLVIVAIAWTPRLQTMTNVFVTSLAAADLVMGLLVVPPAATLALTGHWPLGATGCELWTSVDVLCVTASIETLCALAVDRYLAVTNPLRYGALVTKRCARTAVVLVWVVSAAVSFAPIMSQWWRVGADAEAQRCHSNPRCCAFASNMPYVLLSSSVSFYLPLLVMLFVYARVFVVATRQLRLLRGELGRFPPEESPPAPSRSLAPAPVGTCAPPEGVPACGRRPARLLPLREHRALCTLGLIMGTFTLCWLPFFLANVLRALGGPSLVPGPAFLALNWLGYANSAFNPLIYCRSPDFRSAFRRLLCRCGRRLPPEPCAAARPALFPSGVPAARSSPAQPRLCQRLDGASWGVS

[2] = CHO-K1 (HitHunter), read-out: Average pEC50 [Receptor subtype: B1-AR, Cell type: CHO-K1 (HitHunter)] (converted)
[3] = CHO-K cells, read-out: Average EC50 [Receptor subtype: B1-AR, Cell type: CHO-K]
[4] = CHO-K1 (HitHunter), read-out: Average pEC50 [Receptor subtype: B2-AR, Cell type: CHO-K1 (HitHunter)] (converted)
[5] = CHO-K cells, read-out: Average EC50 [Receptor subtype: B2-AR, Cell type: CHO-K]
[6] = Endogenous receptor, 1321N1 cells, read-out: Average pEC50 [Receptor subtype: Endogenous, Cell type: 1321N1] (converted)
[7] = Average pEC50 [Receptor subtype: B1-AR, Cell type: CHO-K1 (HitHunter)], CHO-K1 (HitHunter)
[8] = Average pEC50 [Receptor subtype: B2-AR, Cell type: CHO-K1 (HitHunter)], CHO-K1 (HitHunter)

Chain of β1-adrenergic receptor (P08588 whole entry, species assumed): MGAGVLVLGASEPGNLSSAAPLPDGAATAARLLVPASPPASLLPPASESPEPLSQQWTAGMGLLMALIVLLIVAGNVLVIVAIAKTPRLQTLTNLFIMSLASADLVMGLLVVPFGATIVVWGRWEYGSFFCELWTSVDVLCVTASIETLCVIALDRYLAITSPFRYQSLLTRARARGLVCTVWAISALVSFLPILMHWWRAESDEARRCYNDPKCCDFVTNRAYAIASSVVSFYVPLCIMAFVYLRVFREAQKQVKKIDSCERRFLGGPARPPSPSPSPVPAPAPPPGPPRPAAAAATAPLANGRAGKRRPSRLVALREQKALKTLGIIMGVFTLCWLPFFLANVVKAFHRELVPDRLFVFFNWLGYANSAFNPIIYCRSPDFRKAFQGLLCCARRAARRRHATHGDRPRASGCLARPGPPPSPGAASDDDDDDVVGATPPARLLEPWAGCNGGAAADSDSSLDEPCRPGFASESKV

SMILES	EC50 (β1-adrenergic receptor; [2])	EC50 (β1-adrenergic receptor; [3])	EC50 (β2 adrenergic receptor; [4])	EC50 (β2 adrenergic receptor; [5])	EC50 [1, 6]	other results
Cc1ccc([C@@H](O)CNC(C)(C)C)nc1C#N [Compound 03-8]	> 1000 nM	> 1000 nM	100 to 1000 nM	100 to 1000 nM	> 1000 nM	EC50 (B3-AR): > 1000 nM
CC(C)(C)NC[C@H](O)c1cccnc1C1CC1 [Compound 03-54]	100 to 1000 nM	100 to 1000 nM	10 to 100 nM	10 to 100 nM		Average pEC50 [Receptor subtype: Endogenous; Cell type: 1321N1] ([1]; Endogenous receptor, 1321N1 cells): C (C = <7-6); EC50 ([1]; Endogenous receptor, 1321N1 cells, read-out: Average EC50 [Receptor subtype: Endogenous, Cell type: 1321N1]): 100 to 1000 nM
COc1ccc(C[C@@H](C)NC[C@H](O)c2cccnc2C2=CCCC2)cc1 [Compound 03-63]						EC50 (β1-adrenergic receptor; [7]): > 1000 nM; EC50 (β2 adrenergic receptor; [8]): 100 to 1000 nM; EC50 [1]: > 1000 nM
COc1ccc(C[C@@H](C)NC[C@H](O)c2cccnc2C2CCCC2)cc1 [Compound 03-64]						EC50 (β1-adrenergic receptor; [7]): > 1000 nM; EC50 (β2 adrenergic receptor; [8]): 100 to 1000 nM; EC50 [1]: 100 to 1000 nM
COc1ccc(C[C@@H](C)NC[C@H](O)c2cccnc2C)cc1 [Compound 03-66]	10 to 100 nM		< 10 nM		100 to 1000 nM	
Cc1ccc([C@@H](O)CNC(C)(C)C)c(C)n1 [Compound 03-67]	100 to 1000 nM		< 10 nM		10 to 100 nM	
CC(C)(C)NC[C@H](O)c1cccnc1OC(F)(F)F [Compound 03-70]	100 to 1000 nM		10 to 100 nM		10 to 100 nM	
CC(C)(C)NC[C@H](O)c1cccnc1OC1CC1 [Compound 03-71]	100 to 1000 nM		10 to 100 nM		10 to 100 nM	
CC(C)(C)NC[C@H](O)c1cccnc1OC1CCC1 [Compound 03-72]	10 to 100 nM		< 10 nM		10 to 100 nM	
CC(C)(C)NC[C@H](O)c1cc(F)cnc1C1CCCC1 [Compound 03-80]	> 1000 nM		10 to 100 nM		100 to 1000 nM	
CC(C)(C)NC[C@H](O)c1cc(F)cnc1C1=CCCC1 [Compound 03-89]	> 1000 nM		100 to 1000 nM		> 1000 nM	
CC(C)(C)NC[C@H](O)c1cccc(-c2ccc[nH]2)n1 [Compound 03-95]	< 10 nM		< 10 nM		< 10 nM	
CC(C)(C)NC[C@H](O)c1cccc(-n2nccn2)n1 [Compound 03-101]	> 1000 nM		10 to 100 nM		100 to 1000 nM	
CC(C)(C)NC[C@H](O)c1cccc(-n2ccnn2)n1 [Compound 03-102]	100 to 1000 nM		10 to 100 nM		10 to 100 nM	
CC(C)(CO)NC[C@H](O)c1cccc(C#N)n1 [Compound 03-104]	100 to 1000 nM		100 to 1000 nM		100 to 1000 nM	
CC(C)(C)NC[C@@H](O)c1ccnc(C#N)c1 [Compound 03-111]	> 1000 nM		10 to 100 nM		100 to 1000 nM	
CC(C)(C)NC[C@H](O)c1cccc(C2CCOCC2)n1 [Compound 03-121]	100 to 1000 nM	10 to 100 nM	< 10 nM	< 10 nM	< 10 nM	
CC(C)(C)NC[C@H](O)c1cccc(-n2cccc2)n1 [Compound 03-123]		< 10 nM	< 10 nM	< 10 nM	< 10 nM	Average pEC50 [Receptor subtype: B1-AR; Cell type: CHO-K1 (HitHunter)] (β1-adrenergic receptor; CHO-K1 (HitHunter)): A (A > 8)
CNc1cccc([C@H](O)CNC(C)(C)C)n1 [Compound 03-142]	> 1000 nM	> 1000 nM	100 to 1000 nM	100 to 1000 nM	> 1000 nM	
CN(C)c1cccc([C@@H](O)CNC(C)(C)C)n1 [Compound 03-153]	10 to 100 nM	10 to 100 nM	< 10 nM	< 10 nM	10 to 100 nM	
CC(C)(C)NC[C@@H](O)c1cccc(C2CCC2)n1 [Compound 03-162]		> 1000 nM	10 to 100 nM	10 to 100 nM	100 to 1000 nM	Average pEC50 [Receptor subtype: B1-AR; Cell type: CHO-K1 (HitHunter)] (β1-adrenergic receptor; CHO-K1 (HitHunter)): D (D < 6)
